Results from patent US9586966B2, “Piperazino[1,2-a]indol-1-ones and [1,4]diazepino[1,2-a]indol-one” (Hoffmann-La Roche Inc., priority 2013, dated 2017).

What was measured:
[1] = system: human embryonic stem cell derived neural stem cells (NSCs); test: Neural stem cell proliferation assay (neurogenesis assay, ATP levels by CellTiterGlo); assay type: cell-based; details: 96 h, concentration at which 150% activity of control (100%) is reached, NSC proliferation, ATP levels after 4 days incubation, dose response 8 μM to 8 nM
Procedure: Neural Stem Cell Proliferation Assay
Neurogenic properties of small molecules are determined based on the proliferation of human embryonic stem cell derived neural stem cells (NSCs) which were derived via a dual smad inhibition as previously described (Chambers, S. M., et al., Highly efficient neural conversion of human ES and iPS cells by dual inhibition of SMAD signaling, Nature biotechnology, 2009. 27(3): p. 275-80.)
Compounds respond is measured by the increase in cells based on ATP levels (Promega:CellTiterGlo®) after an incubation period of 4 days.
NSCs are thawed and expanded over 3 passages. On the 14th day, NSCs are seeded in Polyornithin/Laminin coated 384 well plates at a cell density of 21′000 cells/cm^2 in a media volume of 38 μl. 4 hours after cell seeding, compound solutions are added at a volume of 2 μl. Stock solutions of the compounds (water, 5% DMSO) are diluted to obtain a dose response (11 points, dilution factor is 2), ranging from 8 μM to 8 nM. Controls are run to consistently determine the neurogenic properties of the cells:
Negative (neutral) control is cell culture Media (final DMSO concentration: 0.25%).
1. cell culture Media+100 ng/ml FGF2 (final DMSO concentration: 0.1%)
2. cell culture Media+20 ng/ml EGF (final DMSO concentration: 0.1%)
3. cell culture Media+100 ng/ml Wnt3a (final DMSO concentration: 0.1%)
After 4 days incubation at 37° C., 5% CO2, the amount of ATP per well is quantified. The ATP concentration is proportional to the cell number. ATP is quantified by using the Promega CellTiterGlo® kit. The CellTiterGlo® reagents contain a cell lysis buffer, a thermo stable luciferase (UltraGlo™ recombinant luciferase), magnesium and luciferin. Luciferin reacts with ATP producing oxyluciferin, AMP and light. The luminescence signal is proportional to the ATP content.
The value of negative (neutral) control is determined for each assay plate by taking the average of 16 negative control wells. The neurogenic compound response is calculated for each compound as (compound/Negative Control)*100.
The values of EC150 from the dose response curve are determined for each test compound. The EC150 is the compound concentration at which 150% activity of control (100%) is reached.

Row | Compound | melting point [°C] | EC (150% of control) [1] [µM]
1 | Cc1c2n(c3c(C#N)cc(F)cc13)CCNC2=O [Example 29, 8-Fluoro-10-methyl-1-oxo-3,4-dihydro-2H-pyrazino[1,2-a]indole-6-carbonitrile] | 265 | 0.5
2 | Cc1c2n(c3c(N4CCS(=O)(=O)CC4)cc(C#N)cc13)CCCNC2=O [Example 42, 7-(1,1-Dioxo-1,4-thiazinan-4-yl)-11-methyl-1-oxo-2,3,4,5-tetrahydro-[1,4]diazepino[1,2-a]indole-9-carbonitrile] | 393 | 0.077
3 | Cc1cc(F)cc2cc3n(c12)CCCNC3=O [Example 1, 9-Fluoro-7-methyl-2,3,4,5-tetrahydro-[1,4]diazepino[1,2-a]indol-1-one] | 198 | 0.21
4 | Cc1c2n(c3c(N4CCOCC4)cc(F)cc13)CCNC2=O [Example 6, 8-Fluoro-10-methyl-6-morpholin-4-yl-3,4-dihydro-2H-pyrazino[1,2-a]indol-1-one] | 226 | 0.21
5 | C=CCc1cc(F)cc2c(C)c3n(c12)CCNC3=O [Example 11, 6-Allyl-8-fluoro-10-methyl-3,4-dihydro-2H-pyrazino[1,2-a]indol-1-one] | 172 | 0.14
6 | Cc1c2n(c3c(C)cc(Cl)cc13)CCCNC2=O [Example 39, 9-Chloro-7,11-dimethyl-2,3,4,5-tetrahydro-[1,4]diazepino[1,2-a]indol-1-one] | 198 | 0.36
7 | CCc1cc(F)cc2c(C)c3n(c12)CCNC3=O [Example 8, 6-Ethyl-8-fluoro-10-methyl-3,4-dihydro-2H-pyrazino[1,2-a]indol-1-one] | 177 | 0.019
8 | Cc1c2n(c3c(N4CCOCC4)cc(C#N)cc13)CCCNC2=O [Example 44, 11-Methyl-7-morpholin-4-yl-1-oxo-2,3,4,5-tetrahydro-[1,4]diazepino[1,2-a]indole-9-carbonitrile] | 227 | 0.046
9 | Cc1c2n(c3c(N4CCOCC4)cc(Cl)cc13)CCNC2=O [Example 18, 8-Chloro-10-methyl-6-morpholin-4-yl-3,4-dihydro-2H-pyrazino[1,2-a]indol-1-one] | 207 | 0.039
10 | Cc1c2n(c3c(C)cc(F)cc13)CCNC2=O [Example 5, 8-Fluoro-6,10-dimethyl-3,4-dihydro-2H-pyrazino[1,2-a]indol-1-one] | 208 | 0.074
11 | Cc1c2n(c3c(N4CC5(COC5)C4)cc(F)cc13)CCNC2=O [Example 16, 8-Fluoro-10-methyl-6-(2-oxa-6-aza-spiro[3.3]hept-6-yl)-3,4-dihydro-2H-pyrazino[1,2-a]indol-1-one] | 237 | 0.23
12 | Cc1c2n(c3c(OCC(F)(F)F)cc(F)cc13)CCNC2=O [Example 24, 8-Fluoro-10-methyl-6-(2,2,2-trifluoroethoxy)-3,4-dihydro-2H-pyrazino[1,2-a]indol-1-one] | 239 | 0.17
13 | Cc1c2n(c3c(Cc4ccc(F)cc4)cc(F)cc13)CCNC2=O [Example 15, 8-Fluoro-6-(4-fluoro-benzyl)-10-methyl-3,4-dihydro-2H-pyrazino[1,2-a]indol-1-one] | 178 | 0.16
14 | Cc1c2n(c3c(C)cc(Cl)cc13)CCNC2=O [Example 7, 8-Chloro-6,10-dimethyl-3,4-dihydro-2H-pyrazino[1,2-a]indol-1-one] | 251 | 0.11
15 | Cc1c2n(c3c(N4CCOCC4)cc(C#N)cc13)CCNC2=O [Example 41, 10-Methyl-6-morpholin-4-yl-1-oxo-3,4-dihydro-2H-pyrazino[1,2-a]indole-8-carbonitrile] | 276 | 0.092
16 | Cc1c2n(c3c(N4CCS(=O)(=O)CC4)cc(F)cc13)CCNC2=O [Example 9, 6-(1,1-Dioxo-1λ^6-thiomorpholin-4-yl)-8-fluoro-10-methyl-3,4-dihydro-2H-pyrazino[1,2-a]indol-1-one] | 387 | 0.015
17 | C#Cc1cc(F)cc2c(C)c3n(c12)CCNC3=O [Example 20, 6-Ethynyl-8-fluoro-10-methyl-3,4-dihydro-2H-pyrazino[1,2-a]indol-1-one] | 259 | 0.04
18 | Cc1c2n(c3c(N4CCS(=O)(=O)CC4)cc(C#N)cc13)CCNC2=O [Example 19, 6-(1,1-Dioxo-1λ^6-thiomorpholin-4-yl)-10-methyl-1-oxo-1,2,3,4-tetrahydro-pyrazino[1,2-a]indole-8-carbonitrile] | 400 | 0.008
19 | Cc1c2n(c3c(CCCC#N)cc(F)cc13)CCNC2=O [Example 13, 4-(8-Fluoro-10-methyl-1-oxo-1,2,3,4-tetrahydro-pyrazino[1,2-a]indol-6-yl)-butyronitrile] | 194 | 0.31

Now from value to compound, other results behind:

Row | melting point [°C] | Compound | EC (150% of control) [1] [µM]
20 | 207 | Cc1cc(Cl)cc2cc3n(c12)CCCNC3=O [Example 28, 9-Chloro-7-methyl-2,3,4,5-tetrahydro-[1,4]diazepino[1,2-a]indol-1-one] | 4.1
21 | 250.5 | Cc1cc(F)cc2cc3n(c12)CCNC3=O [Example 2, 8-Fluoro-6-methyl-3,4-dihydro-2H-pyrazino[1,2-a]indol-1-one] | 0.17
22 | 263 | Cc1cc(Cl)cc2cc3n(c12)CCNC3=O [Example 27, 8-Chloro-6-methyl-3,4-dihydro-2H-pyrazino[1,2-a]indol-1-one] | 5.1
23 | 236 | CC(C)Cc1cc(Cl)cc2cc3n(c12)CCNC3=O [Example 26, 8-Chloro-6-(2-methylpropyl)-3,4-dihydro-2H-pyrazino[1,2-a]indol-1-one] | 0.16
24 | 199 | Cc1c2n(c3c(CC(C)C)cc(Cl)cc13)CCNC2=O [Example 14, 8-Chloro-6-isobutyl-10-methyl-3,4-dihydro-2H-pyrazino[1,2-a]indol-1-one] | 0.19
25 | 175 | COc1cc(CC(C)C)c2c(c1)cc1n2CCNC1=O [Example 36, 8-Methoxy-6-(2-methylpropyl)-3,4-dihydro-2H-pyrazino[1,2-a]indol-1-one] | 4.1
26 | 182 | Cc1cc(CC(C)C)c2c(c1)cc1n2CCNC1=O [Example 31, 8-Methyl-6-(2-methylpropyl)-3,4-dihydro-2H-pyrazino[1,2-a]indol-1-one] | 1.16
27 | 260.5 | CC(C)Cc1cc(C#N)cc2cc3n(c12)CCNC3=O [Example 21, 6-Isobutyl-1-oxo-1,2,3,4-tetrahydro-pyrazino[1,2-a]indole-8-carbonitrile] | 0.14
28 | 199 | CC(C)Cc1cc(C#N)cc2cc3n(c12)CCCNC3=O [Example 40, 7-(2-Methylpropyl)-1-oxo-2,3,4,5-tetrahydro-[1,4]diazepino[1,2-a]indole-9-carbonitrile] | 0.55
29 | 189 | Cc1c2n(c3c(CC(C)C)cc(F)cc13)CCNC2=O [Example 3, 8-Fluoro-6-isobutyl-10-methyl-3,4-dihydro-2H-pyrazino[1,2-a]indol-1-one] | 0.009
30 | 191 | CCc1cc(Cl)cc2c(C)c3n(c12)CCNC3=O [Example 10, 8-Chloro-6-ethyl-10-methyl-3,4-dihydro-2H-pyrazino[1,2-a]indol-1-one] | 0.34
31 | 157 | CC(C)Cc1cc(F)cc2cc3n(c12)CCCNC3=O [Example 22, 9-Fluoro-7-isobutyl-2,3,4,5-tetrahydro-[1,4]diazepino[1,2-a]indol-1-one] | 0.11
32 | 160 | Cc1cc(CC(C)C)c2c(c1)cc1n2CCCNC1=O [Example 32, 9-Methyl-7-(2-methylpropyl)-2,3,4,5-tetrahydro-[1,4]diazepino[1,2-a]indol-1-one] | 2.6
33 | 229 | CC(C)Cc1cc(F)cc2cc3n(c12)CCNC3=O [Example 23, 8-Fluoro-6-(2-methylpropyl)-3,4-dihydro-2H-pyrazino[1,2-a]indol-1-one] | 0.02
